This note sets out measurements from US11351178B2, “Selective HDAC6 inhibitors” (ITALFARMACO S.P.A., priority 2017, dated 2022).

Entries after “also recorded” stand apart in the source; their conditions may differ.

Test [1] concerns PD-L1 expression in iDC (GMCSF-IL-4 stimulated monocytes). Kind of test: Inhibition of the expression of PD-L1 in in vitro derived dendritic cells. Type of test: cell-based. The following applies: human monocytes, GMCSF-IL-4, 5 days, FIG. 1. Here is the method:
FIG. 1: The inhibition of PD-L1 expression in iDC (GMCSF-IL-4 stimulated monocytes). Human monocytes were treated with HDAC6 inhibitors and stimulated with GMCSF-IL-4 for 5 days. After incubation, cells were collected and labelled with an anti PD-L1 antibody. Cells were then washed and fluorescence data were acquired using a flow cytometer (BD FACSVerse). Values on the graphs represent the mean of 3 experiment carried out on 3 different donors (n=3). The expression of PD-L1 is represented by the geometric mean of the fluorescence. *=P<0.05 determined by Student's t test.
To obtain in vitro derived DCs, human monocytes purified from PBMC, were treated for 5 days with GMCSF (50 ng/ml) and IL-4 (10 ng/ml) in the presence of two selective HDAC6 inhibitors described in this invention (compounds 10 and 19) and the HDAC inhibitor example 43 of WO 2012/106343. Control cells were treated with the inhibitor's vehicle. This procedure induces the formation of immature dendritic cells (iDCs) that express PD-L1 (Brown J A et al. J Immunol. 2003; 170:1257-66). After 5 days, iDCs were analyzed for the expression of the inhibitory marker […].

Test [2] concerns EMT6, CT26, 4T1 murine tumors. Kind of test: In vivo murine tumor models (FIG. 2). The arrangement: species or system mouse. Particulars: compounds 50 mg/kg oral gavage once a day 5 days a week, anti PD-1 10 mg/kg ip three times a week. From the text: Four different immune-oncology mouse models of cancer were used to evaluate the in vivo efficacy of compounds 8 and 10 of this invention. In this experiment, we compared the efficacy of an anti PD-1 antibody with that shown by the HDAC6 inhibitors. Anti PD-1 targets the immune checkpoint PD-1/PD-L1 axis and is an established immunotherapy in a growing number of malignancies (Pardoll D. M., Nature Reviews Cancer, 2012, 12: 252-264).
Tumors were induced in immunocompetent mice using the following cell lines: • EMT6 (murine breast cancer) • CT26 (murine colon cancer • 4T1 (triple negative murine breast cancer)
• Therapeutic treatment started when tumor nodules reached approximately 3 mm in diameter. • Compounds 8 and 10 were administered by oral gavage once a day for 5 days a week at 50 mg/kg. • Anti PD-1 antibody was administered three times a week by ip injection at 10 mg/kg.

The subject of test [3] is CT26 tumor. Kind of test: CT-26 murine model, single agents and combination with anti PD-1 (FIG. 3). Type of test: in vivo, BALB/c mice. The following applies: for CT-26 tumor growth/progression, single agent: p.o. 50 mg/Kg daily. Here is the method:
FIG. 3: HDAC6 inhibitors reduces CT-26 tumor growth in vivo and their activity can be improved by combined treatment with anti PD-1 antibody. Statistics was evaluated at day 30 by Student's t test. *, P<0.05; **, P<0.01; ***, P<0.001. See text for further details. […] Adult BALB/c mice were injected s.c. with 1×10^6 CT26 tumor cells (diluted to 100 ul with phosphate-buffered saline). One week later, mice were given daily compounds 8 and 10 p.o. at 50 mg/Kg and/or injected with anti-PD1 antibody at 10 mg/Kg. At time of sacrifice, spleens were taken to analyze ex vivo, the tumor immune response. Spleen cells were stimulated with a mixture of CT-26 tumor specific peptides recognized in the context of both MHC I and MHC II. Thus, using this ex vivo stimulation, a specific tumor response mediated by CD4 and CD8 T cells can be detected.

For test [4], the system named is CD4 and CD8 T cells of CT-26 bearing mice. Kind of test: Ex vivo stimulation of splenocytes with CT-26 tumor peptides, IFN-γ and TNF-α by CD4 and CD8 T cells (ELISPOT). In kind it is in vivo, BALB/c mice. Particulars: splenocytes stimulated with CT-26 specific peptides, FIGS. 4 and 5. Here is the method: Splenocytes of animal treated with Compounds 8 and 10 and the combination with anti PD-1 Ab were stimulated with CT-26 derived tumor peptides and the production of IFN-γ and TNF-α by CD4 T cells was quantified by ELISPOT.
Splenocytes of animal treated with Compound 8 and 10 and the combination with anti PD-1 Ab were stimulated with CT-26 derived tumor peptides and the production of IFN-γ and TNF-α by CD8 Tcells was quantified by ELISPOT.
Adult BALB/c mice were injected s.c. with 1×10^6 CT26 tumor cells (diluted to 100 ul with phosphate-buffered saline). One week later, mice were given daily compounds 8 and 10 p.o. at 50 mg/Kg and/or injected with anti-PD1 antibody at 10 mg/Kg. At time of sacrifice, spleens were taken to analyze ex vivo, the tumor immune response. Spleen cells were stimulated with a mixture of CT-26 tumor specific peptides recognized in the context of both MHC I and MHC II. Thus, using this ex vivo stimulation, a specific tumor response mediated by CD4 and CD8 T cells can be detected.
The results are shown in FIGS. 4 and 5 where the percentage of CD4 and CD8 T cells that produce IFN-γ and TNF-α are indicated for each treatment group.

`Cn1c(Sc2ccc(C(=O)NO)cc2)nnc1-c1cccs1` [comp. 10, N-hydroxy-4-((4-methyl-5-(thiophen-2-yl)-4H-1,2,4-triazol-3-yl)thio)benzamide]: the “PD-L1 expression in iDC” value in test [1] is given as “reduced the PD-L1 expression in a statistically significant way”. The “tumor growth in vivo” value in test [2] is on record as “comparable efficacy in reducing tumor growth; also recorded: reduce tumor growth in vivo”. In addition, the “CT-26 tumor growth inhibition, combination with anti PD-1 antibody” value in test [3] (compound p.o. 50 mg/Kg plus anti-PD1 antibody 10 mg/Kg) is “further improves tumor growth inhibition”. In addition, in test [3], the “CT-26 tumor growth/progression, single agent” value was “significantly reduce CT-26 tumor progression”. For the same compound, in test [4], the “ex vivo tumor specific T cell immune response” value is on record as “greater neo antigen immune response”.
`O=C(NO)c1ccc(Cn2nnnc2-c2cccs2)cc1` [comp. 8, N-hydroxy-4-((5-(thiophen-2-yl)-1H-tetrazol-1-yl)methyl)benzamide]: the “tumor growth in vivo” value in test [2] was “comparable efficacy in reducing tumor growth; also recorded: reduce tumor growth in vivo”. Also, the “CT-26 tumor growth/progression, single agent” value in test [3] is listed as “significantly reduce CT-26 tumor progression”. The “ex vivo tumor specific T cell immune response” value in test [4] is reported as “greater neo antigen immune response”.
For the compound `O=C(NO)c1cc(F)c(Cn2nnc(-c3ccco3)n2)c(F)c1` [comp. 19, 3,5-difluoro-4-((5-(furan-2-yl)-2H-tetrazol-2-yl)methyl)-N-hydroxybenzamide], in test [1], the “PD-L1 expression in iDC” value is recorded as “reduced the PD-L1 expression in a statistically significant way”.
